Data taken from patent US6479079B1, “Anticalcification treatments for fixed biomaterials” (Sulzer Carbomedics Inc., priority 1999, dated 2002).

Columns and labels:
[1] = Shrinkage temperature by differential scanning calorimetric analysis; type: physicochemical, bovine
[2] = tested on: glutaraldehyde-fixed bovine pericardium tissue; assay: Calcium and phosphorus content after subcutaneous implantation in rats (Examples 2 and 3); type: in vivo, Sprague-Dawley rats; details: for Calcuim / Phosphorus: Bovine Pericardium, 60 days of implantation
Method: (§1) In a sterile hood, pieces of glutaraldehyde-fixed bovine pericardium tissue (Mitroflow Inc.; Richmond, British Columbia, Canada) porcine cusp tissue (Labcor; Belo Horizonte, Brazil) and porcine wall tissue (Labcor Inc.) were transferred into sterile tubes containing 1,2-octanediol solutions (5% […] (Aldrich Chemical), 40% ethanol and 55% 10 mM HEPES buffer). The tubes were transferred to a 37° C. incubator and maintained at 37° C. with gentle agitation for about 16 hours. After the treatment, the samples were transferred to solutions comprising 22% ethanol in 10 mM HEPES and stored for 14 days at 4° C. The final tissue to volume ratio for all treatments was approximately 27 ml/g.
(§2) For N-methyl pyrolidinone (NMP) treatments, pieces of glutaraldehyde-fixed bovine pericardium tissue (Mitroflow Inc.), porcine cusp tissue (Labcor Inc.) and porcine wall tissue (Labcor Inc.) were transferred into sterile tubes containing NMP. The tubes were incubated at room temperature for about 16 hours with occasional manual agitation. After the treatment, the tissue samples were transferred to 22% HEPES-buffered ethanol solutions and stored for 14 days at 4° C.
(§3) Samples treated with the 1,2-octanediol solutions and with NMP, as well as untreated samples of each tissue type, were provided to Charles Rivers Laboratories (Wilmington, Mass.) for implantation into rats. Seven rats per treatment group were analyzed. Prior to implantation, the tissue samples were rinsed for 3 minutes×3 in sterile PBS, accompanied by gentle agitation. The samples were implanted subcutaneously approximately 1 cm from the abdominal midline in 3 week old Sprague-Dawley rats and retrieved after 60 days of implantation. Unimplanted samples (one per tissue type per treatment) were used as unimplanted controls. After retrieval, the samples were analyzed for their calcium and phosphorus contents using a standard ICP methodology.
In a sterile hood, pieces of glutaraldehyde-fixed bovine pericardium tissue (Mitroflow Inc.) were transferred into sterile tubes containing a 45% solution of HEPES-buffered ethanol (45% ethanol, 55% 10 mM HEPES buffer). The tubes were transferred to a 37° C. incubator and maintained at 37° C. with gentle agitation for about 16 hours. After the treatment, the samples were transferred to fresh solution of 45% HEPES-buffered ethanol and stored for 14 days at room temperature (˜25° C.). The final tissue to volume ratio for all treatments was approximately 27 ml /g.
as §3, with “45% ethanol solution,” for “1,2-octanediol solutions and with NMP,”, “by ICP.” for “using a standard ICP methodology.”

porcine cusp tissue = assay: Calcium and phosphorus content after subcutaneous implantation in rats (Example 2); type: in vivo, Sprague-Dawley rats; details: 60 days of implantation
Method: as §1, §2, §3

porcine wall tissue = assay: as above; type: in vivo, Sprague-Dawley rats; details: 60 days of implantation
Method: as §1, §2, §3

[3] = tested on: glutaraldehyde fixed bovine pericardium; assay: Calcification after subcutaneous implantation in rats (Example 1); type: in vivo, Sprague-Dawley rats; details: alcohol treatment 24 hrs, retrieved after 60 days
Method: Bovine pericardium was obtained fresh from the abattoir, trimmed to remove excess fat, and stored in a high osmolarity solution until use. Prior to fixation, the tissue was rinsed thoroughly in phosphate buffered saline (PBS) having a pH of 7.3-7.4. A 0.25% solution of glutaraldehyde was prepared by adding 2.5 ml of a 50% glutaraldehyde solution (Aldrich Chemical) to 500 ml using PBS. Fifteen 1 cm×1 cm samples of bovine pericardium tissue were added to the glutaraldehyde solution and the tube was stored at room temperature for 7 days.
In a sterile hood, glutaraldehyde fixed bovine pericardium pieces were washed with sterile PBS (3 washes, 10 minutes each). The samples were then immersed in a sterile filtered solution of 40% ethanol, 5% octanol, 55% water and treated for 24 hours at room temperature. The tissue was then washed with sterile PBS (3 washes, 10 minutes each), and in sterile filtered 45% ethanol in PBS for about 30 minutes. […]
The calcium content of the retrieved samples was determined by hydrolyzing the samples under acidic conditions and analyzing the digested samples using standard inductively coupled plasma (ICP) emission spectrophotometry. […] The resulting digested sample was diluted with water and analyzed using an ICP spectrophotometer (Varian Inc.; Liberty 100/200 ICP-OCS).

[4] = treated at 37° C. about 16 hours (Example 3)

effect on shrinkage temperature compared with untreated tissue [1] | Shrink Temperature ([1]; glutaraldehyde 0.25% about 7 days, then post-fixation treatment) | SMILES | Calcuim [2] | Phosphorus [2] | calcium and phosphorus levels of explanted tissues ([2]; all tissue types, most pronounced with bovine pericardium) | Calcuim (porcine cusp tissue) | Phosphorus (porcine cusp tissue) | Calcuim (porcine wall tissue) | Phosphorus (porcine wall tissue) | Calcium ([3]; glutaraldehyde 0.25%, 14 days (45% EtOH) or 7 days (octanol), ICP) | Average von Kossa Grading ([3]; graded from 0 (none) to 5 (severe)) | Calcuim [2, 4] | Phosphorus [2, 4] | calcium and phosphorus levels compared with no anticalcification treatment ([2]; Example 3)
no significant effect | 85.6 °C | CN1CCCC1=O [NMP, N-methyl pyrolidinone] | 8.0 μg/mg tissue | 3.4 μg/mg tissue | significantly reduced | 14.7 μg/mg tissue | 7.9 μg/mg tissue | 111.9 μg/mg tissue | 55.2 μg/mg tissue | – | – | – | – | –
– | – | CCCCCCC(O)CO (centres unmarked) [1,2-octanediol] | 3.4 μg/mg tissue | 0 μg/mg tissue | – | 44.1 μg/mg tissue | 21.9 μg/mg tissue | 106.4 μg/mg tissue | 53.0 μg/mg tissue | – | – | – | – | –
– | – | CCO [45% EtOH, ethanol] | – | – | – | – | – | – | – | 168 μg/mg dry tissue | 5 | 3.4 μg/mg tissue | 0.0 μg/mg tissue | significant reduction
